Reference: patent US5238838A (Degussa Aktiengesellschaft, priority 1991, dated 1993)
Entries after “also recorded” stand apart in the source; their conditions may differ.

How the values were obtained:
strain DSM 6230 = experiment: Growth of strain DSM 6230 on the test substances (OD660); format: cell-based; conditions: for OD660: 5 g/l of the substance in minimum medium with 1.0 g/l yeast extract, 36 h, 30° C.; for Growth of the strain on the substance (in words): strain DSM 6230
Description: 1367 strains were isolated during the screening program. These strains were incubated in 100 ml Erlenmeyer flasks containing 20 ml of the particular enrichment medium in a rotary agitator at 30° C. and 120 rpms. The optical density at 660 nm was taken as an indication for the cell growth.
(§1) In this test, various substances were examined for their induction action. At the same time, the growth on these compounds was followed. The medium used was a minimum medium with 1.0 g/l instead of 0.5 g/l yeast extract, to which 5 g/l of the substance to be tested were added in each instance. The culture without inductor contained 5 g/l yeast extract. All tests were carried out with 20 ml shaking cultures which were incubated 36 h at 30° C. and 120 rpms in a rotating [round]shaking machine. These cultures were inoculated with 1% of an initial culture of strain DSM 6230. L-carnitine amide was used as substrate for the enzyme test.
(§2) At the same time, the growth of the bacteria was followed in these carnitine amide concentrations. The culture conditions corresponded to those in example 3.

L-carnitine amidase [1] = experiment: Substrate spectrum of L-carnitine amidase; format: biochemical, strain DSM 6230; conditions: for Rel. activity (%): substrate 50 mM, 30° C., 100 mM potassium phosphate buffer pH 8
Description: The enzyme test was carried out at 30° C. in 100 mM potassium phosphate buffer pH 8. The substrate concentration was 50 mM.

L-carnitine amidase [2] = experiment: Test for the induction of L-carnitine amidase; format: cell-based, strain DSM 6230; conditions: for Activity (mU/mg) / Activity (mU/ml): 5 g/l of the substance as inductor, 36 h, L-carnitine amide as substrate; for Induction of L-carnitine amidase (in words): strain DSM 6230
Description: as §1, §2

[3] = test system: carnitine amidase (raw extract of strain DSM 6230); experiment: Activity test of the raw extract of strain DSM 6230 with enantiomerically pure D- and L-carnitine amide; format: biochemical; conditions: for Activity (mU/mg) / Activity (mU/ml): raw extract of strain DSM 6230, labelled amide as substrate, 50 mM, 30° C.
Description: After 3 days, the contents of the shaking flasks were centrifuged (10 min., 10000 rpms in a refrigerated centrifuge), and the sedimentated cells were taken up in 100 mM potassium phosphate buffer pH 7.5 (an approximately 20% microorganism suspension was produced).
The microorganisms in this suspension must be macerated in the customary manner (e.g. agitation with fine glass beads or ultrasound treatment). The cell maceration was carried out by means of wet grinding with glass beads (diameter 0.3 mm; 2 g beads per 1 ml cell suspension). The glass beads and the coarse cell fragments were centrifuged off by means of centrifugation in a refrigerated centrifuge (5 min. 12000 rpms). The clear supernatant was designated as raw extract and used for further experiments.
The materials for the activity test contained:
400 μl potassium phosphate buffer 0.1 M, pH 7.5
50 μl substrate in 0.1 M potassium phosphate buffer, pH 7.5
50 μl enzyme solution (raw extract)
The following were used as substrates:
a) DL-carnitine amide final concentration in the test 100 mM
b) D-carnitine amide final concentration in the test 50 mM c) L-carnitine amide final concentration in the test 50 mM
The enzyme test was carried out in 1.5 ml Eppendorf vessels at a temperature of 30° C. The reaction was started by the addition of enzyme solution and stopped by acidification. The precipitated protein was centrifuged off (Eppendorf centrifuge 5 min. 12500 rpms) and the supernatant examined. In order to determine the blank reading, a control specimen for the substrate and the enzyme solution was always used.
The definition of the enzyme unit is 1 mU=1 nM converted substrate per minute.
L-carnitine can be determined enzymatically with the carnitine acetyl transferase. The ammonia was determined on the one hand photometrically as indophenol and on the other hand enzymatically with the aid of glutamate dehydrogenase.
The raw extract of this strain was tested with enantiomerically pure D- and L-carnitine amide:
The raw extract was retested for D- and L-carnitine amide and the enzyme test was stopped after 10 min. (there is still sufficient L-carnitine amide in the test batch) and after 5 hours (the L-carnitine amide has reacted to a great extent or completely). The L-amidase activity, relative to the total amidase activity, was 100% after 10 min. and still over 99% after 5 hours.

[4] = test system: 20% cell suspension of the strain DSM 6230; experiment: Conversion with whole cells; format: cell-based
Excerpt: The conversion with whole cells was examined by carrying out the customary enzyme test with a 20% cell suspension of the strain DSM 6230. Result: L-carnitine amide is converted by whole cells with 64% greater activity than by a macerated cell suspension of the same concentration. D-carnitine is not converted. It is therefore to be expected that the conversion of L-carnitine amide to L-carnitine can also be carried out very well by means of immobilized microorganisms. […] Suitable microorganism immobilizates are immobilizates based on alginate or chitosan.

For NC(=O)[C@@H](N)Cc1ccccc1 [L-phenylalanine amide], the OD660 (strain DSM 6230) was 0.6, the “Rel. activity (%)” value (L-carnitine amidase [1]) was 0% and the “Activity (mU/mg)” value (L-carnitine amidase [2]) was 72 mU/mg. For the same molecule, the “Activity (mU/ml)” value (L-carnitine amidase [2]) was 172 mU/ml.
CC(C)[C@H](N)C(N)=O [L-valine amide] was tested, and the OD660 (strain DSM 6230) was 0.9, the “Rel. activity (%)” value (L-carnitine amidase [1]) was 0% and the “Activity (mU/mg)” value (L-carnitine amidase [2]) was 12 mU/mg. For the same molecule, the “Activity (mU/ml)” value (L-carnitine amidase [2]) was 32 mU/ml.
In the case of CC(O)C(N)=O (stereo not shown) [Lactic acid amide], the OD660 (strain DSM 6230) is reported as 0.8, the “Rel. activity (%)” value (L-carnitine amidase [1]) is reported as 0% and the “Activity (mU/mg)” value (L-carnitine amidase [2]) is reported as 28 mU/mg. The “Activity (mU/ml)” value (L-carnitine amidase [2]) was 55 mU/ml.
With C=CC(N)=O [Acrylamide] the OD660 (strain DSM 6230) was 0.8, the “Rel. activity (%)” value (L-carnitine amidase [1]) was 0% and the “Activity (mU/mg)” value (L-carnitine amidase [2]) was 136 mU/mg. The “Activity (mU/ml)” value (L-carnitine amidase [2]) was 170 mU/ml.
With CC(C)C[C@H](N)C(N)=O [L-leucine amide] the OD660 (strain DSM 6230) was 2.5, the “Growth of the strain on the substance (in words)” value (“Growth of the strain” for short) (strain DSM 6230) was “Good growth” and the “Rel. activity (%)” value (L-carnitine amidase [1]) was 0%. For the same molecule, the “Activity (mU/mg)” value (L-carnitine amidase [2]) was 9 mU/mg, the “Activity (mU/ml)” value (L-carnitine amidase [2]) was 34 mU/ml and the “Induction of L-carnitine amidase (in words)” value (“Induction” for short) (L-carnitine amidase [2]) was “not induced”.
In the case of C[N+](C)(C)C[C@@H](O)CC(N)=O [D-carnitine amide], the “Activity (mU/mg)” value [3] is reported as 0 mU/mg, the “Activity (mU/ml)” value [3] is reported as 0 mU/ml and the OD660 (strain DSM 6230) is reported as 0.8. For the same molecule, the “Hydrolysis / conversion by L-carnitine amidase (in words)” value (L-carnitine amidase [1]) was “does not hydrolyze”, the “Rel. activity (%)” value (L-carnitine amidase [1]) was 0% and the “Activity (mU/mg)” value (L-carnitine amidase [2]) was 166 mU/mg. The “Activity (mU/ml)” value (L-carnitine amidase [2]) was 497 mU/ml.
NC(=O)c1ccccc1 [Benzamide] was tested, and the OD660 (strain DSM 6230) was 0.3, the “Rel. activity (%)” value (L-carnitine amidase [1]) was 0% and the “Activity (mU/mg)” value (L-carnitine amidase [2]) was 0 mU/mg. For the same molecule, the “Activity (mU/ml)” value (L-carnitine amidase [2]) was 0 mU/ml.
With C[N+](C)(C)C[C@H](O)CC(N)=O [L-carnitine amide] the “Activity of whole cells, greater than that of a macerated cell suspension of the same concentration” value [4] was 64%, the “Activity (mU/mg)” value [3] was 1960 mU/mg and the “Activity (mU/ml)” value [3] was 8624 mU/ml. The “L-amidase activity, relative to the total amidase activity” value ([3]; raw extract, enzyme test stopped after 10 min.) was 100%, the “L-amidase activity, relative to the total amidase activity” value ([3]; raw extract, enzyme test stopped after 5 hours) was “over 99%” and the “L-amidase activity (%)” value ([3]; raw extract, relative to total amidase activity) was 100%. The OD660 (strain DSM 6230) was 3.5, the “Growth of the strain” value (strain DSM 6230) was “Good growth” and the “Hydrolysis / conversion by L-carnitine amidase (in words)” value (L-carnitine amidase [1]) was “hydrolyzes”. The “Rel. activity (%)” value (L-carnitine amidase [1]) was 100%, the “Activity (mU/mg)” value (L-carnitine amidase [2]) was 1706 mU/mg and the “Activity (mU/ml)” value (L-carnitine amidase [2]) was 8530 mU/ml. The “Induction” value (L-carnitine amidase [2]) was “induced; also recorded: best of the inductors tested”.
NCC(N)=O [Glycine amide] was tested, and the OD660 (strain DSM 6230) was 1.0, the “Growth of the strain” value (strain DSM 6230) was “good growth substrates” and the “Rel. activity (%)” value (L-carnitine amidase [1]) was 0%. The “Activity (mU/mg)” value (L-carnitine amidase [2]) was 43 mU/mg, the “Activity (mU/ml)” value (L-carnitine amidase [2]) was 180 mU/ml and the “Induction” value (L-carnitine amidase [2]) was “not induced”.
C[N+](C)(C)C[C@@H](O)CC(=O)[O-] [D-carnitine] was tested, and the “Conversion by whole cells (in words)” value [4] was “not converted”.
NC(=O)[C@@H]1CCCN1 [L-proline amide] was tested, and the OD660 (strain DSM 6230) was 1.0, the “Rel. activity (%)” value (L-carnitine amidase [1]) was 0% and the “Activity (mU/mg)” value (L-carnitine amidase [2]) was 54 mU/mg. For the same molecule, the “Activity (mU/ml)” value (L-carnitine amidase [2]) was 250 mU/ml.
CC(N)=O [Acetamide] was tested, and the OD660 (strain DSM 6230) was 1.0, the “Rel. activity (%)” value (L-carnitine amidase [1]) was 0% and the “Activity (mU/mg)” value (L-carnitine amidase [2]) was 0 mU/mg. For the same molecule, the “Activity (mU/ml)” value (L-carnitine amidase [2]) was 0 mU/ml.
For CCCC(N)=O [Butyramide], the OD660 (strain DSM 6230) was 0.9, the “Rel. activity (%)” value (L-carnitine amidase [1]) was 0% and the “Activity (mU/mg)” value (L-carnitine amidase [2]) was 18 mU/mg. For the same molecule, the “Activity (mU/ml)” value (L-carnitine amidase [2]) was 54 mU/ml.
In the case of C=C(C)C(N)=O [Methacrylamide], the OD660 (strain DSM 6230) is reported as 0.8, the “Rel. activity (%)” value (L-carnitine amidase [1]) is reported as 0% and the “Activity (mU/mg)” value (L-carnitine amidase [2]) is reported as 76 mU/mg. The “Activity (mU/ml)” value (L-carnitine amidase [2]) was 237 mU/ml.
In the case of C[N+](C)(C)C[C@@H](O)CC#N [D-carnitine nitrile], the OD660 (strain DSM 6230) is reported as 0.8, the “Rel. activity (%)” value (L-carnitine amidase [1]) is reported as 0% and the “Activity (mU/mg)” value (L-carnitine amidase [2]) is reported as 90 mU/mg. The “Activity (mU/ml)” value (L-carnitine amidase [2]) was 206 mU/ml.
